Data taken from paper PMC11116543, “Computer-aided pattern scoring – A multitarget dataset-driven workflow to predict ligands of orphan targets” (Scientific Data, 2024).
Like-named read-outs stand apart in the source and are kept apart here.

Key:
[1] = target: ABCA1 (Mus musculus, UniProt P41233); test: cell-based
Method: In order to validate the prediction capabilities of the presented workflow, these 66 molecules were assessed in one of the most commonly used assessment platforms for ABCA1 function[21], namely a 25-NBD-cholesterol assay and ABCA1-expressing murine J774A.1 macrophages [TB-67, American Type Culture Collection (ATCC); cultured in Dulbecco’s modified eagle medium (DMEM; Biowest, Nuaillé, France)].

[2] = system: ABCB1, ABCC1, and ABCG2; test: Specificity screen against other ABC transporters: calcein AM (A2780/ADR), daunorubicin (H69AR) and pheophorbide A (MDCK II BCRP) assays; format: cell-based; conditions: 10 µM compound; Supplementary Fig. S3; result in words
Text: Apart from the high hit rate, potency, and structural diversity of the output molecules, it is important to note that the multitarget dataset cross-annotated the molecular-structural and physicochemical information of ligands on a multitude of targets. In order to assess its ABCA-specificity, we tested the hit compounds 4, 7, 8, 11, 13, 28, 29, 30, 32, 41, 46, 47, 50, 58, and 59 against ABC transporters of three different subfamilies, namely ABCB1, ABCC1, and ABCG2[40]. […] On the other hand, it is unlikely that the compounds bear selectivity toward ABCA1, which can be seen as opportunity to explore other ABCA transporters as well, and warrants future investigations.
Suppl ementary Fig. 3 Biological Assessment of hi t compounds 4 , 7, 8 , 11 , 13 , 28, 29, 30, 32,
cal ce i n AM (a), daunorubicin (b), and pheophorbide A (c) assays using ABCB1-expressing
A 2780/ A DR (a), A BCC 1- expressi ng H 69A R (b), and ABCG2-expressing MDCK II BCRP (c) cells as
2. Möhl e, L. , et al . ABC Transporter C1 Prevents Dimethyl Fumarate from Targeting
Alzheimer's Disease. Biology (Basel) 12 ( 7) , 932,
(1 picture or pasted object on this page, not shown here)

[3] = IC50, full concentration-effect curves, Fig. 4(b), mean ± SEM of at least three independent experiments, J774A.1 cells

ABCA1, sequence (P41233 whole entry): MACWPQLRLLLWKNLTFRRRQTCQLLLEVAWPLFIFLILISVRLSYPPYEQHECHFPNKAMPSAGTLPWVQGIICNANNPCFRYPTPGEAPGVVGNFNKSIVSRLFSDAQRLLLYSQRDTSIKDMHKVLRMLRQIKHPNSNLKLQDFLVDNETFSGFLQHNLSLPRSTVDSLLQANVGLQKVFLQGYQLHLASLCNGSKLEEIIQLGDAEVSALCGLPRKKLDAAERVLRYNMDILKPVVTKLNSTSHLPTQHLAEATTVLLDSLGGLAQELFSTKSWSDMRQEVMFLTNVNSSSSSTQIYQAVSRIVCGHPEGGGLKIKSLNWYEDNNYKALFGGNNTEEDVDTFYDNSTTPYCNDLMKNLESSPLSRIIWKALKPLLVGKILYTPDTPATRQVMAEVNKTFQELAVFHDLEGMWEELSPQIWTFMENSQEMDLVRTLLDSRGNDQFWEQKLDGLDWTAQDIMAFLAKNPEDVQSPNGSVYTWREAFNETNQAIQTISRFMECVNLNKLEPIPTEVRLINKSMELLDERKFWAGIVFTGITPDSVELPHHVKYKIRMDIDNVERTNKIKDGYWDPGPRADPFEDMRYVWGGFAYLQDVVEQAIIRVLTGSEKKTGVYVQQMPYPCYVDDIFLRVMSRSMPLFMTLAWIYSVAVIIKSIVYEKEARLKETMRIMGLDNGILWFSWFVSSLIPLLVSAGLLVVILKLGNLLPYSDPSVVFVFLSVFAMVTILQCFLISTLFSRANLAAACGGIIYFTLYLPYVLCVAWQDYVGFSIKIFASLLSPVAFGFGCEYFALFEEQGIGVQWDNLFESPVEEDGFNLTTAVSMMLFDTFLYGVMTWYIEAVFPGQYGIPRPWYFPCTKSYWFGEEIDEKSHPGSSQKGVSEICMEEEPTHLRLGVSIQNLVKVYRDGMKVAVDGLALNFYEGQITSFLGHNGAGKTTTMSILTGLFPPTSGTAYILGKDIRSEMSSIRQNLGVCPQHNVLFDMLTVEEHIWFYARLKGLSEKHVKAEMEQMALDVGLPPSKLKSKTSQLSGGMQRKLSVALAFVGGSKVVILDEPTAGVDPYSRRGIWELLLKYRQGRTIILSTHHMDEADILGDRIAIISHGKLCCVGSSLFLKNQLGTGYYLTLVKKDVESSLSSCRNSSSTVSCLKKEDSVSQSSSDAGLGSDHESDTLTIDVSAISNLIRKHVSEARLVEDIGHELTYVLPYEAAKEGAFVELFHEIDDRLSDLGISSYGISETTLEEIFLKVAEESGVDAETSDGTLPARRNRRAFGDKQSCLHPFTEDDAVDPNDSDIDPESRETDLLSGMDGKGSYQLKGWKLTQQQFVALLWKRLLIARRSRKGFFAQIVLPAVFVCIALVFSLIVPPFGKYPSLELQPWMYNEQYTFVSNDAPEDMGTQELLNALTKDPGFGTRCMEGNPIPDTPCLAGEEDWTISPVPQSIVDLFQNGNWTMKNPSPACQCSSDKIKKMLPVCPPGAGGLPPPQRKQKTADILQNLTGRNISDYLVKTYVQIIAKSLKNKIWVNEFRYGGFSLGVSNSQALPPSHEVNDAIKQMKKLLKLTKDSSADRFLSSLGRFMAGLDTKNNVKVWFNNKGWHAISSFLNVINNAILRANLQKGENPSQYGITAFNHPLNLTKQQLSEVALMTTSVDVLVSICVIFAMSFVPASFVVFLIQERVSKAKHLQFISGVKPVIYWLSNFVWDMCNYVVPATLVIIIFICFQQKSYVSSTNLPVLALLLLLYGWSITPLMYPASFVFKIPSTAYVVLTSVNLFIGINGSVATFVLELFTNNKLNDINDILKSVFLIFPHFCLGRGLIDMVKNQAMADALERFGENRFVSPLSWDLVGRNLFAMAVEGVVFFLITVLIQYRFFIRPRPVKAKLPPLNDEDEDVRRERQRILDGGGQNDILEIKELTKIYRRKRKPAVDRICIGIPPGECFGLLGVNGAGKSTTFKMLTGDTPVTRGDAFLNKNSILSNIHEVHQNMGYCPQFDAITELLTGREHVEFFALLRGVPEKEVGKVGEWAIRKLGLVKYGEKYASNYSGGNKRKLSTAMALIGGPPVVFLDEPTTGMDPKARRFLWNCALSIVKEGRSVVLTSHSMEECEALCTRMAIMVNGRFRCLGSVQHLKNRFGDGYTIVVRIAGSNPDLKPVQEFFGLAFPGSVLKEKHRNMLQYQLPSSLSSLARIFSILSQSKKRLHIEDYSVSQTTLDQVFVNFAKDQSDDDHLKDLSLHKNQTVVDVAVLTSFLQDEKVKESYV

| SMILES | IC50 [1] | IC50 [1, 3] | inhibition of other ABC transporters (ABCB1, ABCC1, ABCG2) [2] |
| --- | --- | --- | --- |
| COc1cc(OC)c2cc(C(=O)N3C[C@@H](O)CC4(CCCC4)C3)[nH]c2c1OC [Compound 47] | 21.5 ± 3.4 µM | 18.9 ± 2.3 µM | – |
| COc1ccc2c(N3C[C@H](O)[C@H](O)CC4(CCCC4)C3)ncnc2c1F [Compound 59] | 9.12 ± 2.9 µM | 21.2 ± 0.6 µM | significant inhibition against either two or three of the assessed transporters |
| COCCc1ccc(OCC(O)CNC(=O)C2CC(F)(F)CCC2(C)C)cc1 (centres unmarked) [Compound 11] | 5.08 ± 0.62 µM | 8.76 ± 1.04 µM | least inhibition of other ABC transporters |
